Measured values taken from patent US8304421B2, “Indole compounds and their use as radiation sensitizing agents and chemotherapeutic agents” (Vanderbilt University, priority 2008, dated 2012).

System: HUVECs
Assay: Tubule formation assay on Matrigel
Format: cell-based, Human
Conditions: 25 μM, 24 hrs, assessed under microscope
Protocol: FIG. 5: HUVECs were plated on Matrigel, then treated wither DMSO or Compound 1 for 24 hrs. Tubule formation was assessed by looking under microscope.
Human umbilical vascular endothelial cells (HUVECs) (50,000 cells/well) were plated on Matrigel. After 30 min, the cells were treated either with DMSO or 25 μM Compound 1. Tubule formation was assessed by observing plates under microscope. FIG. 6 is represents 24 hr time point for DMSO and Compound 1.

Compound: N#Cc1ccc(Cn2cc(C=C3C(=O)NC(=O)NC3=O)c3ccccc32)cc1 [Compound 1, 4-((3-((2,4,6-trioxotetrahydropyrimidin-5(6H)-ylidene)methyl)-1H-indol-1-yl)meth-yl)benzonitrile]
- Tubule formation by HUVECs: inhibited the tubule formation
